In ChEMBL document CHEMBL1629424, “Does conjugation of antioxidants improve their antioxidative/anti-inflammatory potential?” (Bioorg Med Chem, 2010):
Activity calls are given as the source filed them. The calls are words filed in the database; no cut-off is given here.

How the values were obtained:
[1] = Antioxidant activity of the compound assessed as reducing activity of DPPH at 0.1 mM after 20 mins; assay type: functional; design: scale not given: the % may be the effect or the level left
[2] = Antioxidant activity of the compound assessed as reducing activity of DPPH at 0.1 mM after 60 mins; assay type: functional; design: scale not given: the % may be the effect or the level left
Glycine max [3] = experiment: Inhibition of soybean lipoxygenase at 0.1 mM
Glycine max [4] = experiment: Inhibition of soybean lipoxygenase at 0.05 mM
[5] = Antioxidant activity against AAPH-induced lipid peroxidation assessed as inhibition of conjugated diene hydroperoxide production at 0.1 mM by UV spectrophotometry; assay type: functional
[6] = Cytotoxicity against RAMEC assessed as cell viability after 24 hrs by MTT assay; details: Rattus norvegicus
Rattus norvegicus = experiment: Antiinflammatory activity in Fisher rat assessed as inhibition of carrageenan-induced paw oedema at 0.01 mmol/kg, po measured after 3.5 hrs; assay type: functional
[7] = Inhibition of soybean lipoxygenase; design: species or system Glycine max

inhibition (Glycine max [3]) | inhibition (Glycine max [4]) | IC50 [7] [µM] | Structure (SMILES) | Activity [1] | Activity [2] | inhibition [5] | IC50 [6] [µM] | inhibition in vivo at 10 µmol/kg (Rattus norvegicus) [%]
23% | inactive | – | N[C@@H](Cc1ccc(O)c(O)c1)C(=O)O | 76% | 76% | 65% | – | –
– | – | 9.4 | Cc1oc2c(C)c3oc(=O)cc(C)c3cc2c1/C=C/C(=O)OC(C)(C)C | 11% | 11% | 80% | 2.9 | 46
– | – | 41.5 | COc1cc(C)c(/C=C/C(C)=C/C=C/C(C)=C/C(=O)NCCCNCCCCNCCCNC(=O)/C=C/c2c(C)oc3c(C)c4oc(=O)cc(C)c4cc23)c(C)c1C | inactive | inactive | 31% | – | –
23% | inactive | – | COc1ccc(/C=C/C(=O)O)cc1OC | 9% | 10% | 56% | – | –
23% | inactive | – | CC1=C(/C=C/C(C)=C/C=C/C(C)=C/C(=O)NCCCCCCCCCCCCNC(=O)/C=C(C)/C=C/C=C(C)/C=C/C2=C(C)CCCC2(C)C)C(C)(C)CCC1 | inactive | 13.4% | 41% | 2.8 | –
inactive | inactive | – | CC1=C(/C=C/C(C)=C/C=C/C(C)=C/C(=O)O)C(C)(C)CCC1 [TRETINOIN] | 11% | 23% | 75% | 18.3 | 11
24% | inactive | – | CCCCNC(=O)/C=C/c1c(C)oc2c(C)c3oc(=O)cc(C)c3cc12 | inactive | 8.4% | 66% | – | –
– | – | 600 | O=C(O)/C=C/c1ccc(O)c(O)c1 [CAFFEIC ACID] | 5.5% | 6% | 17.5% | – | –
– | – | 40.5 | COc1cc(C)c(/C=C/C(C)=C/C=C/C(C)=C/C(=O)NCc2ccccc2)c(C)c1C | inactive | 2% | 45% | – | 3.6
– | – | – | Cc1c(C)c2c(c(C)c1O)CCC(C)(C(=O)O)O2 (centres undefined) | – | – | 63% | – | –
– | – | – | CC(Cc1ccc(O)c(O)c1)C(C)Cc1ccc(O)c(O)c1 (centres undefined) | – | 83% | – | – | –
– | – | 33.5 | COc1ccc(/C=C/C(=O)NCCOCCOC(=O)/C=C/C(=O)n2cc(C(=O)Nc3ccccc3)c3ccccc32)cc1OC | inactive | 12% | inactive | – | –
75% | inactive | – | COc1cc(C)c(/C=C/C(C)=C/C=C/C(C)=C/C(=O)NCCCNCCCCNCCCNC(=O)/C=C(C)/C=C/C=C(C)/C=C/c2c(C)cc(OC)c(C)c2C)c(C)c1C | 26% | 38% | 97% | 4.7 | 19
inactive | inactive | – | NCCCNCCCCNCCCN | 4% | 4% | inactive | – | –
57% | inactive | – | Cc1oc2c(C)c3oc(=O)cc(C)c3cc2c1/C=C/C(=O)NCCCNCCCCNCCCNC(=O)/C=C/c1c(C)oc2c(C)c3oc(=O)cc(C)c3cc12 | 41% | 54% | 33% | – | –
– | – | 65 | COc1ccc(/C=C/C(=O)NCCOCCOC(=O)/C=C/c2c(C)oc3c(C)c4oc(=O)cc(C)c4cc23)cc1OC | inactive | 15% | 98% | 12.9 | 9
– | – | – | COc1ccc2c(c1)c(CC(=O)O)c(C)n2C(=O)c1ccc(Cl)cc1 [INDOMETHACIN] | – | – | – | – | 47
– | – | 87 | COc1cc(C)c(/C=C/C(C)=C/C=C/C(C)=C/C(=O)NCCc2ccc(O)c(O)c2)c(C)c1C | 79% | 79% | 10% | – | 13.7
43% | inactive | – | CC1=C(/C=C/C(C)=C/C=C/C(C)=C/C(=O)NCCCNCCCCNCCCNC(=O)/C=C/c2c(C)oc3c(C)c4oc(=O)cc(C)c4cc23)C(C)(C)CCC1 | 11% | 38% | 45% | – | –
– | – | 52.4 | O=C(O)/C=C/C(=O)n1cc(C(=O)Nc2ccccc2)c2ccccc21 | 1% | inactive | 85% | – | 11
9% | inactive | – | Cc1oc2c(C)c3oc(=O)cc(C)c3cc2c1/C=C/C(=O)O | 11% | 11% | 73% | – | –
– | – | 62 | COc1ccc(/C=C/C(=O)NCCCNCCCCNCCCNC(=O)/C=C/c2ccc(OC)c(OC)c2)cc1OC | 52% | 58% | 100% | 11.3 | 42
– | – | – | O=C1O[C@H]([C@@H](O)CO)C(O)=C1O | 99% | 100% | – | – | –
16% | inactive | – | O=C(O)CCc1ccc(O)c(O)c1 | 100% | 100% | 47% | – | –
1% | inactive | – | COc1cc(C)c(/C=C/C(C)=C/C=C/C(C)=C/C(=O)O)c(C)c1C [ACITRETIN] | inactive | inactive | 85% | 14.6 | 63
76% | inactive | – | CC1=C(/C=C/C(C)=C/C=C/C(C)=C/C(=O)NCCCNCCCCNCCCNC(=O)/C=C(C)/C=C/C=C(C)/C=C/C2=C(C)CCCC2(C)C)C(C)(C)CCC1 | inactive | 5% | 58% | 2.6 | 40
32% | inactive | – | N[C@@H](Cc1ccc(O)c(O)c1)C(=O)NCCCNCCCCNCCCNC(=O)[C@@H](N)Cc1ccc(O)c(O)c1 | 89% | 96% | 71% | – | –
– | – | 81.5 | N[C@@H](Cc1ccc(O)c(O)c1)C(=O)NCCc1ccc(O)c(O)c1 | 92% | 92% | inactive | – | –
– | – | 9.5 | O=C(CCc1ccc(O)c(O)c1)NCCCNCCCCNCCCNC(=O)CCc1ccc(O)c(O)c1 [KUKOAMINE A] | 96% | 100% | 72% | 3.5 | 43

Structure (SMILES) | inhibition (Glycine max [3]) | inhibition (Glycine max [4]) | IC50 [7] [µM] | Activity [1] | Activity [2] | inhibition [5] | IC50 [6] [µM] | inhibition in vivo at 10 µmol/kg (Rattus norvegicus) [%]
NCCc1ccc(O)c(O)c1 [DOPAMINE] | – | – | 100 | 86% | 86% | 43% | – | 13
